Test results taken from PubChem BioAssay (NCI).
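Cells were grown in 96-well plates and exposed to each compound for 48 hours at five concentrations; endpoints were interpolated linearly between bracketing concentrations, or set to the highest concentration if not reached. TGI: total growth inhibition.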

What was measured:
Experiment in all cases: inhibition of tumour cell growth, NCI panel, 48 h
786-0 renal = test system: 786-0 renal
A498 renal = test system: A498 renal
ACHN renal = test system: ACHN renal
BT-549 breast = test system: BT-549 breast
CAKI-1 renal = test system: CAKI-1 renal
CCRF-CEM leukemia = test system: CCRF-CEM leukemia
COLO 205 colon = test system: COLO 205 colon
DU-145 prostate = test system: DU-145 prostate
EKVX NSCLC = test system: EKVX NSCLC
HCT-116 colon = test system: HCT-116 colon
HCT-15 colon = test system: HCT-15 colon
HL-60(TB) leukemia = test system: HL-60(TB) leukemia
HOP-62 NSCLC = test system: HOP-62 NSCLC
HS 578T breast = test system: HS 578T breast
HT29 colon = test system: HT29 colon
IGROV1 ovarian = test system: IGROV1 ovarian
K-562 leukemia = test system: K-562 leukemia
KM12 colon = test system: KM12 colon
LOX IMVI melanoma = test system: LOX IMVI melanoma
M14 melanoma = test system: M14 melanoma
MALME-3M melanoma = test system: MALME-3M melanoma
MCF7 breast = test system: MCF7 breast
MDA-MB-231 breast = test system: MDA-MB-231 breast
MDA-MB-435 = test system: MDA-MB-435
MDA-N = test system: MDA-N
MOLT-4 leukemia = test system: MOLT-4 leukemia
NCI-H226 lung = test system: NCI-H226 lung
NCI-H23 lung = test system: NCI-H23 lung
NCI-H460 lung = test system: NCI-H460 lung
NCI/ADR-RES ovarian = test system: NCI/ADR-RES ovarian
OVCAR-3 ovarian = test system: OVCAR-3 ovarian
OVCAR-5 ovarian = test system: OVCAR-5 ovarian
OVCAR-8 ovarian = test system: OVCAR-8 ovarian
PC-3 prostate = test system: PC-3 prostate
RPMI-8226 leukemia = test system: RPMI-8226 leukemia
RXF 393 renal = test system: RXF 393 renal
SF-268 CNS = test system: SF-268 CNS
SF-295 CNS = test system: SF-295 CNS
SF-539 CNS = test system: SF-539 CNS
SK-MEL-2 melanoma = test system: SK-MEL-2 melanoma
SK-MEL-28 melanoma = test system: SK-MEL-28 melanoma
SK-MEL-5 melanoma = test system: SK-MEL-5 melanoma
SK-OV-3 ovarian = test system: SK-OV-3 ovarian
SN12C renal = test system: SN12C renal
SNB-19 CNS = test system: SNB-19 CNS
SNB-75 CNS = test system: SNB-75 CNS
SR leukemia = test system: SR leukemia
SW-620 colon = test system: SW-620 colon
T-47D breast = test system: T-47D breast
TK-10 renal = test system: TK-10 renal
U251 CNS = test system: U251 CNS
UACC-257 melanoma = test system: UACC-257 melanoma
UACC-62 melanoma = test system: UACC-62 melanoma
UO-31 renal = test system: UO-31 renal
A549 NSCLC = test system: A549 NSCLC
HCC-2998 colon = test system: HCC-2998 colon
NCI-H522 lung = test system: NCI-H522 lung
OVCAR-4 ovarian = test system: OVCAR-4 ovarian

Compound: CCCC(C)NC(=O)c1ccc(N(C)Cc2cnc3nc(N)nc(N)c3n2)cc1 (configuration not stated)
- TGI (786-0 renal): > 100 µM
- TGI (A498 renal): > 100 µM
- TGI (ACHN renal): 92.5 µM
- TGI (BT-549 breast): 41.6 µM
- TGI (CAKI-1 renal): > 100 µM
- TGI (CCRF-CEM leukemia): > 100 µM
- TGI (COLO 205 colon): > 100 µM
- TGI (DU-145 prostate): > 100 µM
- TGI (EKVX NSCLC): > 100 µM
- TGI (HCT-116 colon): > 100 µM
- TGI (HCT-15 colon): > 100 µM
- TGI (HL-60(TB) leukemia): > 100 µM
- TGI (HOP-62 NSCLC): 89.4 µM
- TGI (HS 578T breast): 44.2 µM
- TGI (HT29 colon): 58.6 µM
- TGI (IGROV1 ovarian): > 100 µM
- TGI (K-562 leukemia): > 100 µM
- TGI (KM12 colon): > 100 µM
- TGI (LOX IMVI melanoma): 82.6 µM
- TGI (M14 melanoma): 31.1 µM
- TGI (MALME-3M melanoma): 39.3 µM
- TGI (MCF7 breast): 78 µM
- TGI (MDA-MB-231 breast): > 100 µM
- TGI (MDA-MB-435): 48.2 µM
- TGI (MDA-N): > 100 µM
- TGI (MOLT-4 leukemia): > 100 µM
- TGI (NCI-H226 lung): 47.6 µM
- TGI (NCI-H23 lung): > 100 µM
- TGI (NCI-H460 lung): > 100 µM
- TGI (NCI/ADR-RES ovarian): > 100 µM
- TGI (OVCAR-3 ovarian): 46.2 µM
- TGI (OVCAR-5 ovarian): 88.6 µM
- TGI (OVCAR-8 ovarian): 75.2 µM
- TGI (PC-3 prostate): > 100 µM
- TGI (RPMI-8226 leukemia): > 100 µM
- TGI (RXF 393 renal): 84.5 µM
- TGI (SF-268 CNS): > 100 µM
- TGI (SF-295 CNS): > 100 µM
- TGI (SF-539 CNS): 32.3 µM
- TGI (SK-MEL-2 melanoma): 49 µM
- TGI (SK-MEL-28 melanoma): 42.3 µM
- TGI (SK-MEL-5 melanoma): 37.4 µM
- TGI (SK-OV-3 ovarian): > 100 µM
- TGI (SN12C renal): > 100 µM
- TGI (SNB-19 CNS): > 100 µM
- TGI (SNB-75 CNS): 56.6 µM
- TGI (SR leukemia): > 100 µM
- TGI (SW-620 colon): > 100 µM
- TGI (T-47D breast): 53.9 µM
- TGI (TK-10 renal): 86.1 µM
- TGI (U251 CNS): > 100 µM
- TGI (UACC-257 melanoma): 57.5 µM
- TGI (UACC-62 melanoma): 25.7 µM
- TGI (UO-31 renal): > 100 µM

Compound: CCCCC(/C=C\COC1CCCCO1)=C/C(=O)OCC (configuration not stated)
- TGI (786-0 renal): > 100 µM
- TGI (A498 renal): > 100 µM
- TGI (A549 NSCLC): > 100 µM
- TGI (ACHN renal): > 100 µM
- TGI (BT-549 breast): > 100 µM
- TGI (CAKI-1 renal): > 100 µM
- TGI (CCRF-CEM leukemia): > 100 µM
- TGI (COLO 205 colon): > 100 µM
- TGI (DU-145 prostate): > 100 µM
- TGI (EKVX NSCLC): > 100 µM
- TGI (HCC-2998 colon): > 100 µM
- TGI (HCT-116 colon): > 100 µM
- TGI (HCT-15 colon): > 100 µM
- TGI (HL-60(TB) leukemia): 67.5 µM
- TGI (HOP-62 NSCLC): > 100 µM
- TGI (HS 578T breast): > 100 µM
- TGI (HT29 colon): > 100 µM
- TGI (IGROV1 ovarian): > 100 µM
- TGI (K-562 leukemia): > 100 µM
- TGI (KM12 colon): > 100 µM
- TGI (LOX IMVI melanoma): > 100 µM
- TGI (M14 melanoma): > 100 µM
- TGI (MALME-3M melanoma): > 100 µM
- TGI (MCF7 breast): > 100 µM
- TGI (MDA-MB-231 breast): > 100 µM
- TGI (MDA-MB-435): > 100 µM
- TGI (MDA-N): > 100 µM
- TGI (MOLT-4 leukemia): 71.5 µM
- TGI (NCI-H226 lung): > 100 µM
- TGI (NCI-H23 lung): > 100 µM
- TGI (NCI-H460 lung): > 100 µM
- TGI (NCI-H522 lung): > 100 µM
- TGI (NCI/ADR-RES ovarian): > 100 µM
- TGI (OVCAR-3 ovarian): > 100 µM
- TGI (OVCAR-4 ovarian): > 100 µM
- TGI (OVCAR-5 ovarian): > 100 µM
- TGI (OVCAR-8 ovarian): > 100 µM
- TGI (PC-3 prostate): > 100 µM
- TGI (RPMI-8226 leukemia): > 100 µM
- TGI (RXF 393 renal): > 100 µM
- TGI (SF-268 CNS): > 100 µM
- TGI (SF-295 CNS): > 100 µM
- TGI (SF-539 CNS): > 100 µM
- TGI (SK-MEL-2 melanoma): > 100 µM
- TGI (SK-MEL-28 melanoma): > 100 µM
- TGI (SK-MEL-5 melanoma): > 100 µM
- TGI (SK-OV-3 ovarian): > 100 µM
- TGI (SN12C renal): > 100 µM
- TGI (SNB-19 CNS): > 100 µM
- TGI (SNB-75 CNS): > 100 µM
- TGI (SR leukemia): > 100 µM
- TGI (SW-620 colon): > 100 µM
- TGI (T-47D breast): > 100 µM
- TGI (TK-10 renal): > 100 µM
- TGI (U251 CNS): > 100 µM
- TGI (UACC-257 melanoma): > 100 µM
- TGI (UACC-62 melanoma): > 100 µM
- TGI (UO-31 renal): > 100 µM
